{
  "source": "patent US20240325530A1",
  "about": "“COMBINATION THERAPIES” (Versanis Bio, Inc., priority 2021, published 2024)",
  "molecules": {"B1": {"name": "Bimagrumab: ActRII receptor antibody, sequences SEQ ID NO: 1-10 (antibody, chains of the INN, looked up, V domains shown)", "VH": "QVQLVQSGAEVKKPGASVKVSCKASGYTFTSSYINWVRQAPGQGLEWMGTINPVSGSTSYAQKFQGRVTMTRDTSISTAYMELSRLRSDDTAVYYCARGGWFDYWGQGTLVTVSS", "VL": "QSALTQPASVSGSPGQSITISCTGTSSDVGSYNYVNWYQQHPGKAPKLMIYGVSKRPSGVSNRFSGSKSGNTASLTISGLQAEDEADYYCGTFAGGSYYGVFGGGTKLTVL"}},
  "key": {"[1]": {"assay": "Obese mouse model (60% fat diet), initial study: food intake, body composition by MRI, physical activity", "design": "species or system C57B1/6J mice", "conditions": "in vivo", "description": "C57B1/6J mice at 5-6 weeks of age were fed a 60% fat diet for 14 weeks and reached an average body weight of 49 grams at the start of dosing, as an obese mouse model. Employing a modified 3×3 factorial design, groups of mice (n=8 per group) received a murinized version of bimagrumab, CDD866, at 0.3 mg/kg or 20 mg/kg intraperitoneally (i.p.) weekly and/or semaglutide at 5 μg/kg or 40 μg/kg subcutaneously (s.c.) daily. The high fat diet was continued through the treatment period, and food intake and body weight were monitored twice weekly. Clinical observations, body composition by MRI, and physical activity, were assessed once weekly."}, "[2]": {"assay": "Pharmacokinetics of semaglutide and CDD866 alone and combined in DIO mice", "type": "in vivo", "conditions": "analyte semaglutide, mean plasma; for MRT inf / MRT last: mouse; for MRT inf: read-out: MRT0-inf; for MRT last: read-out: MRT0-last", "description": "Dedicated cohorts of diet induced obesity (DIO) mice were used. Blood sampling was performed at 5 time points, with 3 mice per time point."}, "[3]": {"assay": "DIO mice: CDD866 combined with semaglutide, liraglutide or tirzepatide (body weight, fat, lean mass, food intake, open field)", "type": "in vivo", "conditions": "Day 22, DIO mice; CDD866 20 mg/kg, semaglutide 40 μg/kg, tirzepatide 45/22.5 μg/kg (Table 4)", "description": "DIO mice received a murinized version of bimagrumab, CDD866, at 20 mg/kg intraperitoneally (i.p.) weekly in combination with semaglutide (40 μg/kg once daily), liraglutide (40 μg/kg twice daily), or tirzepatide at 45 μg/kg once daily and after day 11, 22.5 μg/kg once daily) subcutaneously (s.c.). The GLP-1 agonists in this study were not dose escalated."}, "[4]": {"conditions": "overweight and obese patients; cited from earlier work"}, "[5]": {"conditions": "group CDD866-20 mpk + Semaglutide-40 ug/kg"}},
  "note": "Like-named read-outs stand apart in the source and are kept apart here.",
  "data": [
    {"molecule": "CC[C@H](C)[C@H](NC(=O)[C@H](Cc1ccccc1)NC(=O)[C@H](CCC(=O)O)NC(=O)[C@H](CCCCNC(=O)COCCOCCNC(=O)COCCOCCNC(=O)CC[C@H](NC(=O)CCCCCCCCCCCCCCCCC(=O)O)C(=O)O)NC(=O)[C@H](C)NC(=O)[C@H](C)NC(=O)[C@H](CCC(N)=O)NC(=O)CNC(=O)[C@H](CCC(=O)O)NC(=O)[C@H](CC(C)C)NC(=O)[C@H](Cc1ccc(O)cc1)NC(=O)[C@H](CO)NC(=O)[C@H](CO)NC(=O)[C@@H](NC(=O)[C@H](CC(=O)O)NC(=O)[C@H](CO)NC(=O)[C@@H](NC(=O)[C@H](Cc1ccccc1)NC(=O)[C@@H](NC(=O)CNC(=O)[C@H](CCC(=O)O)NC(=O)C(C)(C)NC(=O)[C@@H](N)Cc1cnc[nH]1)[C@@H](C)O)[C@@H](C)O)C(C)C)C(=O)N[C@@H](C)C(=O)N[C@@H](Cc1c[nH]c2ccccc12)C(=O)N[C@@H](CC(C)C)C(=O)N[C@H](C(=O)N[C@@H](CCCNC(=N)N)C(=O)NCC(=O)N[C@@H](CCCNC(=N)N)C(=O)NCC(=O)O)C(C)C", "note": "[Semaglutide, semaglutide]", "values": [
      {"measurement": "clinical observations", "setting": "[1]", "value": "no clinical observations of concern"},
      {"measurement": "Tlast", "setting": "[2]; [5]", "value": 24.0, "unit": "h"},
      {"measurement": "Tlast", "setting": "[2]; group Semaglutide-5 ug/kg", "value": 8.00, "unit": "h"},
      {"measurement": "Tlast", "setting": "[2]; group Semaglutide-40 ug/kg", "value": 24.0, "unit": "h"},
      {"measurement": "MRT inf", "setting": "[2]; [5]", "value": 16.6, "unit": "h"},
      {"measurement": "MRT last", "setting": "[2]; [5]", "value": 9.76, "unit": "h"},
      {"measurement": "MRT last", "setting": "[2]; group Semaglutide-5 ug/kg", "value": 4.38, "unit": "h"},
      {"measurement": "MRT inf", "setting": "[2]; group Semaglutide-40 ug/kg", "value": 15.2, "unit": "h"},
      {"measurement": "MRT last", "setting": "[2]; group Semaglutide-40 ug/kg", "value": 10, "unit": "h"}
    ]},
    {"molecule": "tirzepatide", "values": [
      {"measurement": "Body weight", "setting": "[3]", "value": "40.2 ± 1.3", "unit": "g"},
      {"measurement": "Fat", "setting": "[3]", "value": "12.7 ± 1.4", "unit": "g"},
      {"measurement": "Lean mass", "setting": "[3]", "value": "25.4 ± 0.4", "unit": "g"}
    ]},
    {"molecule": "B1", "values": [
      {"measurement": "increase in muscle mass", "setting": "[4]", "value": "4-8%"}
    ]}
  ]
}
